Assay [1] relates to S. epidermidis (SE) agr-I. To be noted: fluorescence, ref (11), cited from earlier work.
Assay [2] addresses S. epidermidis agr-I (Staphylococcus epidermidis, UniProt Q5HMY3). Put plainly: cell-based. Format: cell-based. The following applies: for QS interaction in words (inhibition / activation), S. epidermidis agr-I: fluorescent reporter strain, peptides tested at 1000, 50, 2.5, 0.125 nM or in dose-response. As to the method: Peptides were evaluated for the ability to interfere with agr-mediated quorum sensing in S. aureus (AH1677, AH430, AH1747, and AH1872 for agr-I–IV, respectively) ([40]) using reporter strains expressing yellow fluorescent protein (YFP) upon agr activation. Interference with agr-mediated quorum sensing in S. epidermidis (AH3408, AH3623, and AH3409 for agr-I–III, respectively) ([45]), and S. lugdunensis (AH4031 for agr-I) ([37]) was evaluated using reporter strains expressing superfolder green fluorescent protein (sGFP) upon agr activation. Overnight cultures of the reporter strains were grown in TSB medium containing chloramphenicol (CAM, 10 μg/mL for S. aureus) or erythromycin (ERM, 10 μg/mL of S. epidermidis and S. lugdunensis) and diluted 1:100 in fresh TSB medium containing the same antibiotic. Assays were performed in sterile black 96-well plates with a clear bottom. […] DMSO stock solutions of peptides (1 mM) were diluted in TSB media and added (15 μL) in technical triplicate to the 96-well plate, followed by diluted bacterial overnight cultures (135 μL). […] Wells containing 150 μL TSB medium were used to measure background fluorescence. The 96-well plates were incubated in a humidified incubator at 37°C shaking at 1,000 rpm for 22–24 h and fluorescence (for GFP: excitation 479 nm, emission 520 nm; for YFP: excitation 500 nm, emission 541 nm; automatic gain), and OD600 values were subsequently measured using a plate reader. Background fluorescence was subtracted from all wells and further normalized to the corresponding OD600 value of the respective wells. The average fluorescence of control wells was used as a relative measure for 100% activation of the agr-circuit, and bar graphs were generated using GraphPad Prism 10.4 software. All assays were performed in at least a biological duplicate.
Overnight cultures of the reporter strains were grown in TSB medium containing chloramphenicol (CAM, 10 μg/mL for S. aureus) or erythromycin (ERM, 10 μg/mL of S. epidermidis and S. lugdunensis) and diluted 1:100 in fresh TSB medium containing the same antibiotic. Assays were performed in sterile black 96-well plates with clear bottoms. Peptide solutions (15 μL) in 1:5 serial dilutions from DMSO stock solutions (1 mM) in TSB medium were added to the 96-well plate in technical duplicate followed by diluted bacterial overnight cultures (135 μL). […] Wells containing 150 μL TSB medium were used to measure background fluorescence. The 96-well plates were incubated in a humidified incubator at 37°C shaking at 1,000 rpm for 22–24 h and fluorescence (for GFP: excitation 479 nm, emission 520 nm; for YFP: excitation 500 nm, emission 541 nm; automatic gain), and OD600 values were subsequently measured using a plate reader. Background fluorescence was subtracted from all wells and further normalized to the corresponding OD600 value of the respective wells. The average fluorescence of control wells was used as a relative measure for 100% activation of the agr-circuit. Relative agr activity was plotted to obtain IC50 values by non-linear regression with variable slope using GraphPad Prism 10.4 software. All assays were performed in biological triplicate.

The test system of assay [3] is S. aureus (SA) agr-III. Also noted: method as in ref (5) (a number printed in a supplementary file, which may have a reference list of its own: not looked up in the article's list). The following applies: hemolysis; ref (5); cited from earlier work.
In assay [4] the test system is S. aureus (SA) agr-I. The following applies: b-lactamase, cited from earlier work.
Assay [5] concerns the target SA AgrC-IV (Staphylococcus aureus, UniProt Q309Z2). Put plainly: β-Lactamase assay, reporter strain RN10829 (P2-agrA:P3-blaZ) with pagrC-IV. Format: cell-based. The method, boiled down:
(§1)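 S. aureus RN10829 P2-agrA:P3-blaZ reporter carrying a plasmid for the matching wild-type AgrC, grown in TSB to OD600 0.35–0.40. Cells met peptides (10 μM–10 pM) plus cognate AIP at 100 nM for 1 h at 37°C, then nitrocefin (33.3 μg/mL) turnover was read at OD486 for 10 min; IC50 from linear rates.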

The target of assay [6] is SA AgrC-III (Staphylococcus aureus, UniProt O33590). The assay can be described thus: β-Lactamase assay, reporter strain RN10829 (P2-agrA:P3-blaZ) with pagrC-III. Format: cell-based. The method, boiled down: as §1
Chain of SA AgrC-III (O33590 entry or part of it): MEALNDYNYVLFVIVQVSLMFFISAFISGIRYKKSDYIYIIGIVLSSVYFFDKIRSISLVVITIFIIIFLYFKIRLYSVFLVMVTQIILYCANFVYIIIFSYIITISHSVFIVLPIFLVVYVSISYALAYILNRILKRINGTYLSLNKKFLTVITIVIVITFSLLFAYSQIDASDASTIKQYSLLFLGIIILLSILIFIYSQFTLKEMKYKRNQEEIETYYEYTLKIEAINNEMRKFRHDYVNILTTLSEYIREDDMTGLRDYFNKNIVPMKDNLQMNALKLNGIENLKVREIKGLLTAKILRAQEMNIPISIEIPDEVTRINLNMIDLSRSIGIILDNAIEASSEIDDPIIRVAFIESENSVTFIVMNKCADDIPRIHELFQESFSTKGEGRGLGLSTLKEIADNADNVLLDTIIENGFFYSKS
In assay [7] the target is SA AgrC-II (Staphylococcus aureus, UniProt O33587). The assay can be described thus: β-Lactamase assay, reporter strain RN10829 (P2-agrA:P3-blaZ) with pagrC-II. The assay is classed as cell-based. The method, boiled down: as §1
Chain of SA AgrC-II (O33587 entry or part of it): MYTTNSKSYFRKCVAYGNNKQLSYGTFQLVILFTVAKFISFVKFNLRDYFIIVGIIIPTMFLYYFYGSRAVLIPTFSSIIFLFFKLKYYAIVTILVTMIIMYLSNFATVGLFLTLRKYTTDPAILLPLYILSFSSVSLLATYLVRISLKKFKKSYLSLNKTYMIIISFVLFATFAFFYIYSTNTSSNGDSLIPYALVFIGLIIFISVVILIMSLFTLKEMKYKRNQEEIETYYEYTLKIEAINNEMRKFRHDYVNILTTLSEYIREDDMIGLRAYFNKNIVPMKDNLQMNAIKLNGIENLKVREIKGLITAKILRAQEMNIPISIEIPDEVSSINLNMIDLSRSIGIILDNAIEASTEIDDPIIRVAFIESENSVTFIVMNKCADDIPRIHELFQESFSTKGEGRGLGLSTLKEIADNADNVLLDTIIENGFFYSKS

Values joined by “and” are separate entries in the source; they are usually repeats but may differ in a detail not shown here. Identical values can stand only once. Like-named read-outs stand apart in the source and are kept apart here. Positions of bridges follow the written chain, without caps; N, C: chain ends. Residues, ends and D or L forms follow the SMILES beside them.

Chain of S. epidermidis agr-I (Q5HMY3 entry or part of it): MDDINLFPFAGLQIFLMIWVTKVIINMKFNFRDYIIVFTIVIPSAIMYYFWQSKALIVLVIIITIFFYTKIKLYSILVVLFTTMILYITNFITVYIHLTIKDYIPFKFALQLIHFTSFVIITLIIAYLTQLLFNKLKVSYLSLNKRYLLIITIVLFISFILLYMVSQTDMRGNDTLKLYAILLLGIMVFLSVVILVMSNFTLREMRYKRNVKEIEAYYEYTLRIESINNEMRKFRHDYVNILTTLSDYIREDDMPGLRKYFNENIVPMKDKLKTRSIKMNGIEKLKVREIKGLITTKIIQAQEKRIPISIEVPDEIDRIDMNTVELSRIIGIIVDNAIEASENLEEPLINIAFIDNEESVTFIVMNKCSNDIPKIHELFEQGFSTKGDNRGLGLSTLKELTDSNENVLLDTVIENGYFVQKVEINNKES
Chain of SA AgrC-IV (Q309Z2 entry or part of it): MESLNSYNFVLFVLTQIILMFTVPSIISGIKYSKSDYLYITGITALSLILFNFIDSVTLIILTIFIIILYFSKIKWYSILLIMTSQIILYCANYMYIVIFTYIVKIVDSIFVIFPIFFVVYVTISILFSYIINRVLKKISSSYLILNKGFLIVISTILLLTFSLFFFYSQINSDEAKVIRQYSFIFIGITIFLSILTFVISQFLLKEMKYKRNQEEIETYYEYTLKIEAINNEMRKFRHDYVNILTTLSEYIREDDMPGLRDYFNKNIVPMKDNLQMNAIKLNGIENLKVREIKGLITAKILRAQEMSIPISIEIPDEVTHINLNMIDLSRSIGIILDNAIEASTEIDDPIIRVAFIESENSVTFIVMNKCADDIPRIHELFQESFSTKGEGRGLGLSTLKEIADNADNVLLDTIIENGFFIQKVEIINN

Usually IC50 stands for the concentration at which inhibition is half-maximal. As a reminder, the EC50 is the midpoint of the concentration-response curve. Take `CC[C@H](C)[C@@H]1NC(=O)[C@H](Cc2ccccc2)NC(=O)[C@H](CC(=O)O)NC(=O)[C@@H](NC(=O)[C@@H](NC(=O)[C@H](CO)NC(=O)[C@@H](N)Cc2ccc(O)cc2)[C@@H](C)O)CSC(=O)[C@H](CCSC)NC1=O` [compound 1, S. aureus AIP-I] (H-YSTCDFIM; thioester 4-C): in assay [1] (at 1000 nM), the “inhibition at 1000 nM, SE agr-I” value was “no inhibition”. The IC50 in assay [2] is greater than 1000 nM; in assay [3] it was 6.12 nM. Besides, the EC50 in assay [4] (ref (3)) is 40 nM and 23 nM; in assay [4] (ref (4)), 28 nM; in assay [4] (ref (6)) it was 11 nM; in assay [4] (ref (7)), 3.21 nM.
With `CC(C)C[C@@H]1NC(=O)[C@@H](NC(=O)[C@@H]2CCCN2C(=O)[C@H](CC(N)=O)NC(=O)[C@H](Cc2ccc(O)cc2)NC(=O)[C@@H](N)CCCCN)CSC(=O)[C@H](CC(C)C)NC(=O)[C@H](Cc2ccccc2)NC(=O)CNC1=O` [compound 32, S. simulans AIP-I] (H-KYNPCLGFL; thioester 5-C; N-terminus assumed), inhibition in assay [2] was half-maximal at 0.74 ± 0.01 nM (IC50).
As to `NCCCC[C@H](N)C(=O)N[C@@H](Cc1ccc(O)cc1)C(=O)N[C@@H](Cc1ccc(O)cc1)C(=O)N1CCC[C@H]1C(=O)N[C@H]1CSC(=O)[C@H](Cc2ccccc2)NC(=O)[C@H](Cc2ccc(O)cc2)NC(=O)CNC(=O)[C@H](Cc2c[nH]c3ccccc23)NC1=O` [compound 33, S. simulans AIP-II] (H-KYYPCWGYF; thioester 5-C), the IC50 in assay [5] is 273 ± 26 nM; in assay [6], 198 ± 33 nM; in assay [2], 0.31 ± 0.06 nM; in assay [7], 80 ± 7 nM. Also, the “QS interaction in words (inhibition / activation), S. epidermidis agr-I” value in assay [2] was “inhibited”.
Consider `NCCCC[C@H](N)C(=O)N[C@@H](Cc1ccc(O)cc1)C(=O)N[C@@H](CC(N)=O)C(=O)N1CCC[C@H]1C(=O)N[C@H]1CSC(=O)[C@H](Cc2ccccc2)NC(=O)[C@H](Cc2ccc(O)cc2)NC(=O)CNC(=O)[C@H](Cc2c[nH]c3ccccc23)NC1=O` [compound 34, S. simulans AIP-III] (H-KYNPCWGYF; thioester 5-C), for which the IC50 in assay [5] was 351 ± 60 nM; in assay [6] it was 103 ± 5 nM; in assay [2], 0.14 ± 0.03 nM; in assay [7] it was 60 ± 7 nM.
Take “S. aureus AIP-III D4A [compound 57, reference compound]”: in assay [1] (at 10 µM), the “inhibition at 10 µM, SE agr-I” value is on record as ~ 25%. Besides, the “QS interaction in words (inhibition / activation), S. epidermidis agr-I” value in assay [2] is “weak interference”. The values for the concentration for half-maximal inhibition (IC50) in assay [3] and in assay [4] (ref (8)) were 0.16 nM and 0.16 ± 0.01 nM, respectively.
